This is an account of results in article PMC7035787 (Molecular pharmaceutics, 2019).

One series in a line: in vivo. The conditions noted are these: male, Sprague-Dawley, rat, 3 mg/kg.
Series [1] has as its system lungs from sham and PAH rats. Briefly: Pulmonary retention in isolated perfused rat lung. It is filed as in vitro ADME. The conditions noted are these: IT route, sham and PAH lungs.
The nature of series [2]: Pulmonary retention in isolated perfused rat lung. The conditions noted are these: rat, 3 mg/kg, 2 h. Format: in vitro ADME.

One may read the AUC(0-inf) as total exposure, with the tail of the curve extrapolated. Lower therefore signals less exposure. What is called Cmax is the maximum level reached in the sampled fluid or tissue. Turning to `O=S(=O)(c1cccc2cnccc12)N1CCCNCC1` [plain fasudil, fasudil], the AUC(0-inf) in “in vivo” and in “in vivo” (iv) was 5967 ± 25.9 ng·h/mL in each case. The compound further returned a Cmax in “in vivo” (inhaled or intranasal) of 3040 ± 635 ng/mL. Moreover, the “drug concentration in the perfusate” value in series [1] is listed as “about 10 μg/mL”. The recovery at 2 h is 16.6 ± 7.7% in series [2] (IPRL tubes (circuitry), other: intratracheal (IT) via the tracheal cannula, pH 7.4, recovery dose (%) IPRL tubes, IT route, PAH lungs, by subtraction from dose); 7.4 ± 1% in series [2] (IPRL tubes (circuitry), other: intratracheal (IT) via the tracheal cannula, pH 7.4, recovery dose (%) IPRL tubes, IT route, Sham lungs, by subtraction from dose); 70.1 ± 7.3% in series [2] (lung homogenate, other: intratracheal (IT) via the tracheal cannula, pH 7.4, recovery dose (%) lung, IT route, PAH lungs, fasudil 3 mg/kg); 71.8 ± 2% in series [2] (lung homogenate, other: intratracheal (IT) via the tracheal cannula, pH 7.4, recovery dose (%) lung, IT route, Sham lungs, fasudil 3 mg/kg); 49.6 ± 6.2% in series [2] (lung homogenate, other: via the cannulated pulmonary artery, mimicking IV, pH 7.4, recovery dose (%) lung, IV-mimicking route, PAH lungs, fasudil 3 mg/kg); 34.7 ± 3.2% in series [2] (lung homogenate, other: via the cannulated pulmonary artery, mimicking IV, pH 7.4, recovery dose (%) lung, IV-mimicking route, Sham lungs, fasudil 3 mg/kg). Moreover, the recovery at 2 h in series [2] (perfusate, other: intratracheal (IT) via the tracheal cannula, pH 7.4, recovery dose (%) perfusate, IT route, PAH lungs, fasudil 3 mg/kg) came out at 13.3 ± 2.6%; in series [2] (perfusate, other: intratracheal (IT) via the tracheal cannula, pH 7.4, recovery dose (%) perfusate, IT route, Sham lungs, fasudil 3 mg/kg), 20.8 ± 2.7%; in series [2] (perfusate, other: via the cannulated pulmonary artery, mimicking IV, pH 7.4, recovery dose (%) perfusate, IV-mimicking route, PAH lungs, fasudil 3 mg/kg), 39.1 ± 3.9%; in series [2] (perfusate, other: via the cannulated pulmonary artery, mimicking IV, pH 7.4, recovery dose (%) perfusate, IV-mimicking route, Sham lungs, fasudil 3 mg/kg) it was 56.5 ± 5.3%.
